Results: paper PMC3974779, “Pterostilbene-Isothiocyanate Conjugate Suppresses Growth of Prostate Cancer Cells Irrespective of Androgen Receptor Status” (PLoS ONE, 2014)
Residues, ends and D or L forms follow the SMILES beside them. *: point of attachment. Cbz = O=C(OCc1ccccc1)*; CH2F = FC*

Experiments:
[1] = system: LNCaP cells; assay: MTT cytotoxicity assay; format: cell-based; conditions: Homo sapiens, 24 h, 24 h exposure, mean ± SEM, read-out: IC50 value (50% growth inhibition)
Experimental: (§1) MTT assay was carried out as described previously. In brief, 5×10^3 cells in 200 μl of medium were seeded in 96-well plates (Griener, Germany). After 24 h, the cells were treated with various concentrations (0.1, 1, 10, 100 and 1000 μM) of RESV, PTER and conjugate. The control cells were treated with 0.1% DMSO (vehicle control). The cultured cells were assayed after 24 h by adding 20 μl of 5 mg/ml MTT followed by incubating at 37°C for 4 h. The MTT containing media was then aspirated and 200 μl DMSO (Himedia, Mumbai, India) was added to dissolve the formazone crystals. The optical density (OD) was measured at 570 nm using ELISA plate reader (Fluostar optima, BMG Labtech, Germany). The percentage inhibition was calculated as: [drawing 1]
(§2) The dose response curve and IC50 values were obtained by nonlinear regression analysis [non-linear regression (sigmoidal dose response with variable slope)] using Graph Pad Prism, version 5.02 software (Graph Pad Software Inc., CA, USA).

[2] = system: COS-1 cells; assay: MTT cytotoxicity assay; format: cell-based; conditions: Chlorocebus aethiops, COS-1 noncancer cells, 24 h exposure, read-out: IC50 value (50% growth inhibition)
Experimental: as §1, §2

[3] = system: CHO cells; assay: MTT cytotoxicity assay; format: cell-based; conditions: Cricetulus griseus, CHO noncancer cells, 24 h exposure, read-out: IC50 value (50% growth inhibition)
Experimental: as §1, §2

[4] = system: PC-3 cells; assay: MTT cytotoxicity assay; format: cell-based; conditions: Homo sapiens; PC-3, MTT, 24 h exposure, mean ± SEM; read-out: IC50 value (50% growth inhibition)
Experimental: as §1, §2

[5] = system: AR in LNCaP cells; assay: Immunofluorescence staining of endogenous AR; format: cell-based, human; conditions: varying doses of conjugate, 20 μM RESV, DHT
Experimental: The cells were then incubated with AR rabbit polyclonal antibody diluted 1∶200 in blocking buffer for 1 h at RT. Finally, the cells were washed with PBS and incubated with FITC-labelled anti-rabbit secondary antibody diluted 1∶1000 in blocking buffer for 30 min at room temperature. The cells were then observed under a fluorescence microscope (Zeiss, Axiovert 25, Germany).

[6] = system: caspase-9 activity in LNCaP cells; assay: Caspase colorimetric protease assay; format: cell-based, human; conditions: 24 h
Experimental: (§3) Caspase activity was determined using ApoTarget caspase colorimetric protease assay sampler kit (KHZ1001; Invitrogen) according to the manufacturer’s instructions. Briefly, both the PCa cells were treated with increasing doses of conjugate and RESV for 24 h. The cells were then collected, washed in PBS, and lysed in 50 μl lysis buffer on ice for 10 min. After centrifugation, the supernatant containing 150 μg proteins were incubated with 200 μM of caspase-3 (Ac-DEVD-pNA), caspase-8 (Ac-IETD-pNA) and caspase-9 (Ac-LEHD-pNA) substrates respectively in reaction buffer at 37°C for 1 h in 96 well flat bottom plate. Levels of released pNA were then measured at 405 nm wavelength with ELISA plate reader (Fluostar optima, BMG Labtech, Germany). The fold-increase in caspase-3, -8, and -9 activities were determined by direct comparison to the level of un-induced control. For the caspase inhibitor assay, cells were pretreated with a synthetic pan-caspase inhibitor (Z-VAD-FMK), caspase-8 inhibitor (Z-IETD-FMK) and caspase-9 inhibitor (Z-LEHD-FMK) for 1 h before the addition of conjugate and the cell death were analyzed by MTT assay as discussed earlier.

[7] = system: caspase-3 activity in PC-3 cells; assay: Caspase colorimetric protease assay; format: cell-based, human; conditions: PC-3, 10, 20 and 40 μM, 24 h
Experimental: as §3

[8] = system: caspase-8 activity in PC-3 cells; assay: Caspase colorimetric protease assay; format: cell-based, human; conditions: PC-3, 24 h, high dose
Experimental: as §3

[9] = system: caspase-9 activity in PC-3 cells; assay: Caspase colorimetric protease assay; format: cell-based, human; conditions: PC-3, 10, 20 and 40 μM, 24 h
Experimental: as §3

[10] = system: caspase-3 activity in LNCaP cells; assay: Caspase colorimetric protease assay; format: cell-based, human; conditions: 24 h
Experimental: as §3

[11] = system: p-ERK in PC-3 cells; assay: Immunoblot of ERK phosphorylation; format: cell-based, human; conditions: 24 h
Experimental: (§4) The whole-cell lysates were prepared as described previously in immunoprecipitation (IP) buffer containing 50 mM Tris-HCl (pH 8.0), 150 mM NaCl, 5 mM EDTA, and 1% Triton X-100. Protein aliquots of 500 μg were then incubated overnight at 4°C using 2 μg of antibody directed against AR. The Protein A-Cl Agarose beads were then added and further incubated for 6 h at 4°C. The immunoprecipitates were washed four times with the IP buffer and the immunocomplexes were recovered by boiling in SDS sample buffer. Finally the western blot was carried out using anti-AR, anti-SRC-1 and anti-GRIP-1 antibodies (Santa Cruz, CA, USA). For western blot analysis, the cell lysates were prepared after harvesting them in lysis buffer. About 40 μg of total protein was electrophoresed by 12% SDS-PAGE, and the western blotting was carried out using standard protocol. In brief, the analyzed proteins were transferred to nylon membranes. The blots were then blocked with TBST buffer (20 mM Tris-Cl, pH 7.5, 150 mM sodium chloride, 0.05% Tween-20) containing 5% skim milk powder. They were then washed with TBST buffer and incubated overnight at 4°C with the same buffer containing appropriate amounts of primary antibodies: caspase-3, Bax, Bcl-2, Akt, p-Akt, ERK, p-ERK, AR, SRC-1, GRIP-1 (1∶500) and β-actin (1∶1000). The blots were then washed and incubated with anti-rabbit secondary antibody (1∶20,000) conjugated with horseradish peroxidase (HRP). Color development was performed in the dark by using an ECL kit (Amersham, GE Healthcare, Buckinghamshire, UK). The developed blots were subjected to densitometric analysis by ImageJ 1.43 software (NIH, USA) using β-actin as internal control.
(§5) The siRNAs against human Akt and ERK and control siRNA were purchased commercially from Santa Cruz Biotechnology (USA). The LNCaP and PC-3 PCa cells were transfected with siRNAs (at a final concentration of 100 nM) using polyfect transfection reagent (Qiagen, CA, USA) according to manufacturer’s instructions. After 24 h of transfection, the cells were washed properly and replaced with fresh medium. The cells were then treated with 20 μM conjugate for 24 h, and finally protein lysates were prepared on completion of treatment. The levels of p-Akt, p-ERK and cleaved caspase-3 expressions were detected by Western blot analysis.

[12] = system: AR protein in LNCaP cells; assay: Immunoblot of AR protein; format: cell-based, human
Experimental: as §4

[13] = system: caspase-3 expression in PC-3 cells; assay: Immunoblot analysis of apoptotic markers; format: cell-based, human; conditions: PC-3, highest dose (40 μM), immunoblot densitometry
Experimental: as §4

[14] = system: caspase-3 expression in LNCaP cells; assay: Immunoblot analysis of apoptotic markers; format: cell-based, human; conditions: highest dose (40 μM), immunoblot densitometry
Experimental: as §4

[15] = system: p-Akt in PC-3 cells; assay: Immunoblot of Akt phosphorylation; format: cell-based, human; conditions: 24 h
Experimental: as §4, §5

[16] = system: p-Akt in LNCaP cells; assay: Immunoblot of Akt phosphorylation; format: cell-based, human; conditions: below 20 μM, 24 h
Experimental: as §4, §5

[17] = system: GRIP-1 in LNCaP cells; assay: Immunoblot of AR co-activators; format: cell-based, human; conditions: DHT treatment
Experimental: as §4

[18] = system: SRC-1 in LNCaP cells; assay: Immunoblot of AR co-activators; format: cell-based, human; conditions: DHT treatment
Experimental: as §4

[19] = system: LNCaP cells; assay: Caspase inhibitor assay (conjugate-induced cell death, MTT); format: cell-based, human; conditions: 20 μM caspase inhibitor 1 h before 20 μM conjugate, MTT after 24 h
Experimental: as §3
(§6) Figure 2 The conjugate induces G2/M phase arrest and caspase dependent cell death in prostate cancer cells. Cell cycle distribution of (A) PC-3 and (B) LNCaP cells upon treatment with varying doses of conjugate. Results are presented as mean ± SEM of three independent experiments. *represents statistically significant difference with respect to vehicle treated PC-3 and LNCaP cells respectively corresponding to each stage of cell cycle at p<0.05. (C) The effects of varying doses of conjugate (left panel) and resveratrol (right panel) on caspase-8, -9 and -3 activities in PC-3 and (D) LNCaP cells. Results are the mean ± SEM of three independent experiments. *represents statistically significant difference with respect to control cells for respective caspases tested at p<0.05. (E) The effect of caspase inhibitors on conjugate-induced cell death in PC-3 and (F) LNCaP cells. The cells were pre-treated with 20 μM of respective caspase inhibitors: Z-LEHDFMK (caspase-9 inhibitor); Z-IETDFMK (caspase-8 inhibitor); and Z-VAD-FMK (general caspase inhibitor) for 1 h before the addition of 20 μM conjugate. Cell death was measured 24 h after conjugate treatment using MTT assay. Data are the mean ± SEM of three independent experiments. *and # represents statistically significant difference with respect to control (vehicle) and conjugate treated cells respectively for each cell lines at p<0.05. ns, non-significant.

[20] = system: PC-3 cells; assay: as above; format: cell-based, human; conditions: PC-3, 20 μM caspase inhibitor 1 h before 20 μM conjugate, MTT after 24 h
Experimental: as §3, §6

[21] = system: p53 protein in LNCaP cells; assay: Immunoblot of p53 with p53 inhibitor; format: cell-based, human; conditions: 20 μM PFT-α, 20 and 40 μM conjugate, 24 h
Experimental: The whole-cell lysates were prepared as described previously in immunoprecipitation (IP) buffer containing 50 mM Tris-HCl (pH 8.0), 150 mM NaCl, 5 mM EDTA, and 1% Triton X-100. Protein aliquots of 500 μg were then incubated overnight at 4°C using 2 μg of antibody directed against AR. The Protein A-Cl Agarose beads were then added and further incubated for 6 h at 4°C. The immunoprecipitates were washed four times with the IP buffer and the immunocomplexes were recovered by boiling in SDS sample buffer. Finally the western blot was carried out using anti-AR, anti-SRC-1 and anti-GRIP-1 antibodies (Santa Cruz, CA, USA). For western blot analysis, the cell lysates were prepared after harvesting them in lysis buffer. About 40 μg of total protein was electrophoresed by 12% SDS-PAGE, and the western blotting was carried out using standard protocol. In brief, the analyzed proteins were transferred to nylon membranes. […]
Since there was no significant difference in the number of apoptotic cells between conjugate treated LNCaP (wild type p53) and PC-3 (p53 null) cells (p<0.05), it was intriguing to check if p53 has any role in conjugate induced apoptosis of PCa cells. […] Next we determined the effect of p53-inhibition on conjugate induced cell death by using MTT assay.

Compound: COc1cc(/C=C/c2ccc(O)cc2)cc(OC)c1 [Pterostilbene]
- IC50 [1]: ~66.4 µM
- IC50 [2]: > 100 µM
- IC50 [3]: > 100 µM
- IC50 [4]: 75 ± 2.55 µM

Compound: Oc1ccc(/C=C/c2cc(O)cc(O)c2)cc1 [Resveratrol, reference compound]
- AR immunofluorescence intensity [5]: marginal decrease
- caspase-9 activity [6]: significant increase
- caspase-3 enzyme activity [7]: dose-dependent augmentation
- caspase-8 activity [8]: marginal increase
- caspase-9 enzyme activity [9]: dose-dependent augmentation
- caspase-3 activity [10]: significant increase
- reduction in level of p-ERK ([11]; PC-3, 20 μM): 1.3 folds
- reduction in level of p-ERK ([11]; PC-3, 40 μM): 1.8 folds
- inhibition of AR protein levels ([12]; 10 and 20 μM, absence of DHT): did not show any significant inhibition
- inhibition of DHT induced AR protein levels ([12]; till 20 μM, 10 nM DHT): did not show any significant inhibition
- enhancement of caspase-3 expression [13]: 3.5 folds
- enhancement of caspase-3 expression [14]: 4.5 folds
- decrease in level of p-Akt ([15]; PC-3, 20 μM): about 1.2 folds
- decrease in level of p-Akt ([15]; PC-3, 40 μM): ~1.6 folds
- effect on level of p-Akt [16]: negligible effects
- IC50 [1]: ~82.2 µM
- IC50 [2]: > 100 µM
- IC50 [3]: > 100 µM
- IC50 [4]: 95 ± 1.13 µM

Compound: C[C@]12CCC(=O)C[C@@H]1CC[C@@H]1[C@@H]2CC[C@]2(C)[C@@H](O)CC[C@@H]12 [DHT, dihydrotestosterone, reference compound]
- change in expression of GRIP-1 [17]: no significant change
- increase in expression of SRC-1 [18]: 1.2 fold

Compound: COC(=O)CC[C@H](NC(=O)[C@H](CC(C)C)NC(=O)OCc1ccccc1)C(=O)N[C@@H](Cc1c[nH]cn1)C(=O)N[C@@H](CC(=O)OC)C(=O)CF [Z-LEHD-FMK] (Cbz-LE(OMe)HD(OMe)-CH2F)
- inhibition of conjugate induced cell death/apoptosis [19]: almost completely blocked

Compound: Z-IETD-FMK: caspase-8 specific inhibitor
- inhibition of conjugate induced cell death/apoptosis [19]: only partially inhibited
- inhibition of conjugate induced cell death [20]: completely ineffective

Compound: Cbz-Val-Ala-Asp-CH2F
- inhibition of conjugate induced cell death/apoptosis [19]: significant inhibition of cell death
- inhibition of conjugate induced cell death [20]: significant inhibition of cell death

Compound: Cc1ccc(C(=O)Cn2c3c(sc2=N)CCCC3)cc1 [PFT-α, pifithrin-α, reference compound]
- expression of p53 protein [21]: significantly down regulated
